Source: ChEMBL document CHEMBL3507680, “University of Dundee, Gates Library screen for HepG2 cell viability”

experiment: Human HepG2 cell viability assay in 384 well format; type: toxicity, cell-based; set-up: dose 125 nL, time 70.5 hour; cytotoxicity at 70.5 h: concentration not given beside the values; settings: HepG2 cells, read-out: Inhibition

Compound | cytotoxicity at 70.5 h
CCC1(CC)Cc2ccccc2-c2nc(CN(C)C)nc(O)c21 | 27.5%
COc1ccc(C2SCC(=O)Nc3ccsc32)cc1 (stereo unspecified) | -3.24%
CC(C)c1nnc2ccc(N3CCC(C(=O)Nc4nccs4)CC3)nn12 | 10.7%
O=C(Cn1nc2c(cc1=O)CSCC2)NC(Cc1ccccc1)C(=O)O (stereo unspecified) | 23%
O=C(O)c1cc2c(nc1O)CC(c1cccc(Cl)c1)CC2=O (stereo unspecified) | -2.93%
COc1cccc(-c2nc(C)c(C(=O)NC(CO)CCSC)s2)c1 (stereo unspecified) | -25%
O=C(c1nc(-c2ccc3cc[nH]c3c2)no1)N1CCCC1 | -5.08%
CC[C@H](C)[C@H](NC(=O)Cc1csc(-c2cccc(Cl)c2)n1)C(=O)O | -27.4%
CC(C)N1CCn2c(nc3cc(C(N)=O)ccc32)C1 | -16.5%
Cc1ccc2c(ccn2CCC(=O)N2CCC(C(N)=O)CC2)c1 | -21.3%
Cc1oc(-c2nc(C#N)c(N(C)C)o2)cc1S(=O)(=O)N1CCCC1 | -21.5%
CC1CCc2nc(O)c(C(=O)NCc3cccc(F)c3)cc2C1 (stereo unspecified) | -3.12%
O=c1c2cnc(N3CCCCC3)nc2ccn1-c1ccccc1 | 19%
O=c1[nH]c2c(c(=O)n1C1CCCCC1)CCC2NCCc1ccccc1 (stereo unspecified) | -17.4%
CC(C)NC(=O)c1sccc1N(C)S(=O)(=O)c1ccc(Cl)cc1 | -8.11%
Cc1cc2nc(SCC(=O)N3CCOCC3)n(CC(C)C)c(=O)c2[nH]1 | -7.46%
O=c1[nH]c2nc(N3CCSCC3)ncc2c(=O)n1-c1cccc(F)c1 | -0.348%
CN1CCN(c2ncc3c(=O)n(-c4cccc(F)c4)c(=O)[nH]c3n2)CC1 | -12.6%
Cc1noc(C2CCCCN2C(=O)NC2CCCC2)n1 (stereo unspecified) | -7.87%
O=C(O)c1nnn(-c2ccc(OC(F)(F)F)cc2)c1-c1ccncc1 | -10.5%
NC(=O)c1ccc2c(c1)nc1n2CCN(Cc2ccco2)C1 | -8.52%
COc1cccc2c1ccn2CCC(=O)N1CCCC(C(=O)O)C1 (stereo unspecified) | 18.7%
CC(C)N1CCc2c(C#N)c(NCc3ccco3)n3cnnc3c2C1 | -10.3%

Compound | cytotoxicity at 70.5 h
CC(C)CNC(=O)c1c(-n2cnnn2)sc2c1CCC2 | -13.7%
CN(C(=O)Cn1nc(-c2cccs2)ccc1=O)C1CCS(=O)(=O)C1 (stereo unspecified) | 11.2%
Cn1ncc2c1NC(=O)CC2c1ccc(Cl)cc1Cl (stereo unspecified) | -15%
Cc1c[nH]nc1C1CN(c2ncccn2)CCO1 (stereo unspecified) | -3.49%
c1cc(C2CN(C3CCCCC3)C2)n[nH]1 | 17.8%
Cc1cc(C(F)(F)F)nc(C2CCN(C(=O)CO)CC2)n1 | -6.47%
Cc1nn(C)cc1-c1cc(C(=O)NCC(C)(C)c2ccc(F)cc2)n[nH]1 | 4.21%
Cc1nn(C)cc1-c1cc(C(=O)NCC(C)(C)c2ccccc2F)n[nH]1 | 17.9%
Cc1nn(C)cc1-c1cc(C(=O)NCC(C)(C)c2cccc(F)c2)n[nH]1 | 1.66%
Cc1cc(N(C)C)nc(C2(C)CCCN2CC(N)=O)n1 (stereo unspecified) | -2.11%
CC1(c2[nH]ncc2C(N)=O)CCN(S(=O)(=O)c2ccccc2)CC1 | -2.57%
Cc1cc(O)nc(C2CCN(C(=O)CO)CC2)n1 | -3.54%
CN(CC1(C)COC1)C(=O)c1cc(-c2ccn(C)n2)nc2ccccc12 | 14.1%
CC(C)(C)c1cc(C(=O)N2CCC(c3cnccn3)CC2)[nH]n1 | -5.82%
CCCn1cc(Cl)c(C(=O)N2C[C@@H](O)[C@H](Oc3ccccc3)C2)n1 | 1.62%
CN(Cc1ccc(F)cc1)[C@@H]1CN(S(C)(=O)=O)C[C@H]1O | -4.5%
CNc1cncc(C2CCCN2C(=O)CCn2ccnc2)n1 (stereo unspecified) | -6.98%
CO[C@@H]1CCC[C@@H](N(C)C(=O)c2cn3cc(C)ccc3n2)[C@H]1O | -8.11%
C[C@@H]1CN(Cc2ccco2)CCN1C(=O)Cc1ccccc1F | -10.6%
CCSCc1nc(O)c2nnn(C3CCN(Cc4ccco4)CC3)c2n1 | 9.06%
CCSCc1nc(O)c2nnn(C3CCN(Cc4ccoc4)CC3)c2n1 | -14.9%
CS(=O)(=O)N1CCCC(n2nnn(-c3ccccc3)c2=O)C1 (stereo unspecified) | -8.01%
CCS(=O)(=O)N1CCCC(n2nnn(-c3ccccc3)c2=O)C1 (stereo unspecified) | -4.32%

Compound | cytotoxicity at 70.5 h
CC1(C(=O)N2CCSCC2)CNCCO1 (stereo unspecified) | 11.8%
CNC(=O)CCc1cc(C)nc(C2CCN(c3ccccc3)CC2)c1 | -3.63%
CNC(=O)CCc1cc(C2CCN(c3cnccn3)CC2)nc(C)n1 | -8.81%
CCCC(=O)NCCc1nc(N(C)C)ncc1-c1ccncc1 | -7.54%
COCC(=O)NCCc1nc(N(C)C)ncc1-c1ccncc1 | -6.86%
CC(C)C(=O)N1CCC([C@@H]2C[C@H](C(F)F)n3ncnc3N2)CC1 | 9.09%
COCCNCc1cc2ccc(C)c(C)c2[nH]c1=O | 4.37%
CSc1nnc(C2CCN(C(=O)N3CCCC3)CC2)n1C | -9.43%
CSc1nnc(C2CCN(C(=O)N3CCCC3)CC2)n1C(C)C | 2.59%
CS(=O)(=O)c1cc(Cl)cnc1C1CCCN(C(=O)C2CCOCC2)C1 (stereo unspecified) | -7.95%
COc1ccc(S(=O)(=O)N2CCC[C@@H]3CN(C(=O)C4CC4)C[C@@H]32)cc1F | 21.2%
CCc1cccc2cc(CNCCOC)c(=O)[nH]c12 | 21.7%
COc1ccc(S(=O)(=O)N2CCC[C@@H]3CN(C(=O)C4CC4)C[C@@H]32)cc1 | 50%
O=C(C1CCCC1)N1CCCC([C@@H]2C[C@H](C(F)F)n3ncnc3N2)C1 (stereo partly specified) | -6.92%
COc1ccccc1CC(=O)N1CCN(Cc2ccco2)C[C@@H]1C | -2.18%
Cn1cc(CN2CCC(c3cc(COc4ccc(Cl)cc4)[nH]n3)C2)cn1 (stereo unspecified) | 0.81%
CO[C@H]1CN(Cc2nc3ccccc3n2C)CC[C@@]12CCCO2 | -4.2%
CNC(=O)CCc1cc(C)nc(C2CCN(C3CCCCC3)CC2)c1 | -0.853%
CNC(=O)CCc1cc(C)nc(C2CCN(C(=O)CN(C)C)CC2)c1 | -3.32%
O=C(c1cnc(O)c(Cl)c1)N1CCCC(c2nccs2)C1 (stereo unspecified) | 6.3%
Cc1ncccc1C(=O)N1CCC2(CCc3ccccc3C(=O)N2)C1 (stereo unspecified) | 15.5%
COc1ccc2c(c1)CC(C1CCOCC1)N(C(=O)c1ccn(C)n1)C2 (stereo unspecified) | 2.06%
CC(C)c1cc(C(=O)N2CCC3(CCc4ccccc4C(=O)N3)C2)no1 (stereo unspecified) | 8.79%

Compound | cytotoxicity at 70.5 h
Cc1ccc(-c2nnc(C3CCCN3S(=O)(=O)c3cnn(C)c3C)o2)s1 (stereo unspecified) | 2.03%
CN(C)C(=O)c1c[nH]nc1-c1ccc(CNC(=O)c2cnccn2)cc1 | -1.73%
CC(C)c1nccn1CCC(=O)N1CCCCC1c1ccn[nH]1 (stereo unspecified) | 3.76%
COc1ccc(CN(C)CC2(O)CCNC2)cc1 (stereo unspecified) | 0.252%
O=C(CC1CCCC1)N1CCCC1c1ccc(CN2CCOCC2)cn1 (stereo unspecified) | -0.855%
CCc1nccn1CCC(=O)N1CCCC1c1cncc(NC)n1 (stereo unspecified) | 5.43%
Cc1ncsc1C(=O)NCc1ccc(-c2n[nH]cc2C(=O)N(C)C)cc1 | -1.47%
Nc1nc(N)c2c(n1)OC1(CCN(C(=O)CC3CCCCN3)CC1)C2 (stereo unspecified) | -5.34%
Cc1cc(N2CCCC(c3nccnc3N(C)C)C2)ncn1 (stereo unspecified) | -2.83%
Cc1nc(Nc2ncccn2)cc(C2CCCN2C2CCOCC2)n1 (stereo unspecified) | 1.98%
CN(C)C(=O)C1CN(Cc2ccccc2)CCN(S(C)(=O)=O)C1 (stereo unspecified) | -6.37%
CNc1cc(C2CCCN2Cc2ccccc2C(=O)O)ccn1 (stereo unspecified) | -9.85%
CN(C)c1cncc(C2CCN(C(=O)CO)CC2)n1 | -22.6%
Cc1nc(Nc2nccs2)cc(C2CCCN2C2CCOCC2)n1 (stereo unspecified) | -8.39%
Cc1ccc(S(=O)(=O)N2C[C@H]3C[C@H](NC(=O)c4ccnn4C)[C@H]3C2)cc1 | 46.1%
CN1CCCC(Cc2cncc(C(=O)NCC3CC3)c2)C1 (stereo unspecified) | -1.13%
CC(=O)N1CCN(C)CC(COCc2ccccc2)C1 (stereo unspecified) | -3.41%
CC(C)C1=NOC2(CCN(Cc3c[nH]c4ccccc34)CC2)C1 | 4.04%
Cc1cccc(N2Cc3c(NC4CCCC4)ncnc3N(C)CC2=O)c1 | -4.33%
Cc1ccc2nc(C3CCCN(Cc4ccccc4)C3)nc(O)c2c1 (stereo unspecified) | 0.432%
O=C1Nc2ccccc2CNC12CCN(CC1CCNC1)CC2 (stereo unspecified) | -11%
O=C1Nc2ccccc2CNC12CCN(CC1CCCC1)CC2 | -7.54%
CC(=O)N1CCC2(CC1)CC(C(C)C)=NO2 | -9.06%

Compound | cytotoxicity at 70.5 h
COc1ccccc1-c1cc(C(=O)N(C)C)c2cnn(C)c2n1 | -11.2%
NCCCC(=O)N1CCC2(CC1)CN(C(=O)c1ccc(Cl)cc1)CCO2 | -12.4%
O=C(C1CCCC1)N1CC2(CCN(C3COC3)C2)OCc2ccccc21 (stereo unspecified) | -17.3%
O=C(C1CCCC1)N1CC2(CCN(C3COC3)CC2)Cc2ccccc21 | -21%
O=C(NC1CCCCC1)N1CCn2c(nnc2C2CCCN2)C1 (stereo unspecified) | -12.5%
Cc1cc(C(=O)NCc2ccc(F)cc2)c2c(C3CCCN3)noc2n1 (stereo unspecified) | -6.52%
Cc1cc(C(=O)NCC(C)C)c2c(C3CCCN3)noc2n1 (stereo unspecified) | -5.52%
O=C(C1CCCC1)N1CCn2c(nnc2C2CCCNC2)C1 (stereo unspecified) | -3.22%
O=C(c1ccc(Cl)cc1)N1CCn2c(nn(-c3ccc(Cl)cc3)c2=O)C1 | -1.63%
O=C(c1ccc(Cl)cc1)N1CCn2c(nn(-c3ccncc3)c2=O)C1 | -8.19%
c1cc(OCc2ccc3c(c2)OCCO3)ccc1CNC1CC1 | 22.8%
CCN(CC)C1CCN(C(=O)c2cc3cc(C)cc(C)c3nc2C)CC1 | -2.42%
CN(C)[C@@H]1CN(Cc2ccc(O)cc2)C[C@H]1c1cn(C)c2ccccc12 | 3.53%
COc1ccc(C(CNS(=O)(=O)c2cn(C)nc2C)N2CCCC2)cc1 (stereo unspecified) | 26.7%
CNCc1ccc([C@@H]2CN(C)C[C@H]2C(N)=O)cc1 | 19.9%
CNCc1ccc([C@@H]2CN(C(C)=O)C[C@H]2C(N)=O)cc1 | -7.99%
Cc1noc2nc(C3CCN(Cc4cccnc4)CC3)cc(C(F)F)c12 | -3.96%
Cc1nc[nH]c1CN(Cc1ccccc1)C1CC(C)(C)NC(C)(C)C1 | 4.53%
Cc1cccc(CN2CCC(c3csc4nccn34)CC2)n1 | 0.645%
